Assay results from patent publication US8771944B2, “Use of micro-RNA as a biomarker of immunomodulatory drug activity” (Celgene Corporation, priority 2007, dated 2014).

How the values were obtained:
[1] = test system: CD34+ hematopoietic precursor cells; test: miRNA differential expression profiling (Ambion Bioarrays) in CD34+ cells; type: cell-based; details: CD34+ hematopoietic precursor model
Text: A CD34^+ hematopoietic precursor cell line was utilized to examine miRNA biomarker expression upon treatment with an immunomodulatory compound. CD34^+ cells used in preclinical studies were purchased from a commercial supplier (Lonza), isolated by positive immunomagnetic selection from bone marrow. In clinical studies, CD34^+ cells can be purified by positive immunomagnetic selection or by flow cytometric immunosorting from bone marrow or peripheral blood using conventional methodologies.
CD34^+ cells were expanded for 6 days in Iscove's DMEM media (Invitrogen) with 20% BIT serum substitute (StemCell Technologies) in the presence of SCF (100 ng/ml), Flt-3 ligand (100 ng/ml), and IL-3 (20 ng/ml) and then differentiated for 6 days in Iscove's/20% BIT containing SCF (50 ng/ml) and erythropoietin (2 U/ml) in the presence of 0.1% DMSO, 1 or 10 uM the immunomodulatory compound. Cells were grown in tissue culture and treated with the immunomodulatory compound according to methods known in the art. […]
The expression array method detected two miRNAs that were regulated by administration of immunomodulatory agents in the CD34^+ hematopoietic precursor model.

[2] = test system: CD34+ cells; test: qRT-PCR of miR-130a and miR-146b in CD34+ cell cultures; type: cell-based; details: 6 days, 1 or 10 μm
Procedure: CD34^+ cells were expanded for 6 days in Iscove's DMEM media (Invitrogen) with 20% BIT serum substitute (StemCell Technologies) in the presence of SCF (100 ng/ml), Flt-3 ligand (100 ng/ml), and IL-3 (20 ng/ml) and then differentiated for 6 days in Iscove's/20% BIT containing SCF (50 ng/ml) and erythropoietin (2 U/ml) in the presence of 0.1% DMSO, 1 or 10 uM the immunomodulatory compound. Cells were grown in tissue culture and treated with the immunomodulatory compound according to methods known in the art.
To quantitate selected miRNAs with qRT-PCR, purified miRNA was analyzed using a TaqmanR microRNA Assay (Applied Biosystems). Five ng of purified miRNA was subjected to qRT-PCR with TaqmanR miRNA assay according to manufacturers instructions. Alternatively, the procedure may be achieved by using miRNA-specific reverse transcription and PCR primers with standard buffers, reagents, and methods.
Levels of miR-130a and miR-146b were determined using qRT-PCR as described above.

[3] = test system: Namalwa cells; test: miRNA expression profile / qRT-PCR of miR-143 and miR-145 in Namalwa cells; type: cell-based; details: 10 μM, 6 or 24 hours, FIG. 2
Procedure: An experiment similar to described above in Sections 6.1-6.5 was performed with a Namalwa lymphoma cell line model. The Namalwa Burkitt's lymphoma cell line was purchased from ATCC and grown in RPMI with 10% fetal bovine serum according to standard tissue culture methods known in the art.
Namalwa cells grown as above were treated for 6 or 24 hours with either 0.1% DMSO, 10 μM 1,3-dioxo-2-(2,6-dioxopiperidin-3-yl)-4-aminoisoindoline, or the HDAC inhibitor TSA 1 μM. Cells were harvested at indicated times and then miRNA was purified as outlined in previous sections.
miRNA expression profiles in Namalwa cells treated with immunomodulatory compounds were generated using methods similar to that described in Section 6.3.
Levels of miR-145 and miR-143 were determined using qRT-PCR. Purified miRNA was analyzed using a TaqmanR microRNA expression assay (Applied Biosystems). Five ng of purified miRNA was subjected to qRT-PCR with TaqmanR miRNA assays for miR-143 and miR-145 according to manufacturers instructions. The procedure may be achieved by using miRNA reverse transcription and PCR primers with standard buffers, reagents, and methods.

[4] = cited from earlier work
[5] = test system: Namalwa cells; test: Agilent miRNA array v2, lenalidomide-treated Namalwa cells; type: cell-based, human; details: for miR-143 Fold Increase / miR-145 Fold Increase: Namalwa cells
Procedure: (§1) Additional assays were performed to determine the effects of lenalidomide (1-oxo-2-(2,6-dioxopiperidin-3-yl)-4-aminoisoindoline) administration to various cell cultures on the expression of miRNAs. The miRNAs were detected using the Agilent miRNA array v2, which contains probes for 760 human miRNAs. […] was isolated using the Qiagen miRNeasy kit, total RNA (100 ng) was dephosphorylated and ligated with pCp-Cy3. Labeled RNA was purified and hybridized to Agilent miRNA arrays.
Namalwa cells: Lenalidomide was added to Namalwa cells at a concentration of 0.1 μm, 1 μm, or 10 μm. The miRNA levels were measured at 24 and 48 hours after addition of the lenalidomide. The results with this array confirmed the upregulation of miR-143 and miR-145 in Namalwa cells in a dose-dependent response to administration of 1-oxo-2-(2,6-dioxopiperidin-3-yl)-4-aminoisoindoline (Table 2).

[6] = test system: HL60 cells; test: Agilent miRNA array v2, lenalidomide-treated HL60 cells; type: cell-based, human; details: for miR-99b Fold Increase / miR-125a Fold Increase / miR-143 Fold Increase / miR-145 Fold Increase / miR-146b Fold Increase: HL-60 cells
Procedure: as §1
HL60 cells: The addition of lenalidomide (1-oxo-2-(2,6-dioxopiperidin-3-yl)-4-aminoisoindoline) to a cell culture from an acute myelogenous leukemia (AML) cell line (HL60) was also shown to upregulate a number of miRNAs.

[7] = test system: H929 cells; test: Agilent miRNA array v2, lenalidomide-treated H929 cells; type: cell-based, human; details: for miR-204 Fold Increase / miR-424 Fold Increase / miR-503 Fold Increase: H929 cells
Procedure: as §1

[8] = Namalwa cells, 0.1, 1 or 10 μm, 24 and 48 hours, dose-dependent response
[9] = 24 hour treatment, 0.1 uM lenalidomide
[10] = 24 hour treatment, 1 uM lenalidomide
[11] = 24 hour treatment, 10 uM lenalidomide
[12] = 48 hour treatment, 0.1 uM lenalidomide
[13] = 48 hour treatment, 1 uM lenalidomide
[14] = HL60 acute myelogenous leukemia cell line
[15] = HL60 cells, dose dependent manner at both 24 and 48 hours
[16] = 24 hour treatment, Lenalidomide 0.1 uM
[17] = 24 hour treatment, Lenalidomide 1.0 uM
[18] = 24 hour treatment, Lenalidomide 10.0 uM
[19] = 48 hour treatment, Lenalidomide 0.1 uM
[20] = 48 hour treatment, Lenalidomide 1.0 uM
[21] = 48 hour treatment, Lenalidomide 10.0 uM
[22] = H929 multiple myeloma cell line, 24 and 48 hours

## Nc1cccc2c1C(=O)N(C1CCC(=O)NC1=O)C2=O (stereo not drawn) [1,3-dioxo-2-(2,6-dioxopiperidin-3-yl)-4-aminoisoindoline]
[1]
  miR-130a expression change (expression array): upregulated
  miR-146b expression change (expression array): upregulated
[2]; FIG. 1A
  miR-146b expression (qRT-PCR) compared to DMSO control: upregulation
[2]; FIG. 1B
  miR-130a expression (qRT-PCR) compared to DMSO control: upregulation
[3]
  miR-143 expression change: upregulation
  miR-145 expression change: upregulation

## Nc1cccc2c1CN(C1CCC(=O)NC1=O)C2=O (stereo not drawn) [Form E, 3-(4-amino-1-oxo-1,3 dihydro-isoindol-2-yl)-piperidene-2,6-dione]
[4]
  stability of polymorphic form in aqueous solvent systems: most stable form

## Nc1cccc2c1CN(C1CCC(=O)NC1=O)C2=O (stereo not drawn) [lenalidomide, 1-oxo-2-(2,6-dioxopiperidin-3-yl)-4-aminoisoindoline]
[5]; [8]
  miR-143 expression change: upregulation
  miR-145 expression change: upregulation
[5]; [9]
  miR-143 Fold Increase: 2.29 fold
  miR-145 Fold Increase: 2.34 fold
[5]; [10]
  miR-143 Fold Increase: 3.81 fold
  miR-145 Fold Increase: 4.16 fold
[5]; [11]
  miR-143 Fold Increase: 4.69 fold
  miR-145 Fold Increase: 4.96 fold
[5]; [12]
  miR-143 Fold Increase: 2.31 fold
  miR-145 Fold Increase: 2.53 fold
[5]; [13]
  miR-143 Fold Increase: 4.68 fold
  miR-145 Fold Increase: 5.12 fold
[6]; [14]
  miR-143 expression change: upregulated
  miR-145 expression change: upregulated
[6]; [15]
  miR-99b expression change: upregulated
  miR-125a expression change: upregulated
  miR-146b expression change: upregulated
[6]; [16]
  miR-99b Fold Increase: 1.81 fold
  miR-125a Fold Increase: 1.56 fold
  miR-143 Fold Increase: 1.42 fold
  miR-145 Fold Increase: 1.33 fold
  miR-146b Fold Increase: 2.28 fold
[6]; [17]
  miR-99b Fold Increase: 2.37 fold
  miR-125a Fold Increase: 1.93 fold
  miR-143 Fold Increase: 1.56 fold
  miR-145 Fold Increase: 1.62 fold
  miR-146b Fold Increase: 2.99 fold
[6]; [18]
  miR-99b Fold Increase: 2.53 fold
  miR-125a Fold Increase: 2.04 fold
  miR-143 Fold Increase: 1.63 fold
  miR-145 Fold Increase: 1.77 fold
  miR-146b Fold Increase: 3.29 fold
[6]; [19]
  miR-99b Fold Increase: 1.99 fold
  miR-125a Fold Increase: 1.72 fold
  miR-143 Fold Increase: 1.96 fold
  miR-145 Fold Increase: 1.89 fold
  miR-146b Fold Increase: 4.38 fold
[6]; [20]
  miR-99b Fold Increase: 2.45 fold
  miR-125a Fold Increase: 2.05 fold
  miR-143 Fold Increase: 2.40 fold
  miR-145 Fold Increase: 2.27 fold
  miR-146b Fold Increase: 7.16 fold
[6]; [21]
  miR-99b Fold Increase: 2.69 fold
  miR-125a Fold Increase: 2.24 fold
  miR-143 Fold Increase: 2.25 fold
  miR-145 Fold Increase: 2.34 fold
  miR-146b Fold Increase: 7.07 fold
[7]; [16]
  miR-204 Fold Increase: 1.75 fold
  miR-424 Fold Increase: 1.50 fold
  miR-503 Fold Increase: 1.61 fold
[7]; [17]
  miR-204 Fold Increase: 2.20 fold
  miR-424 Fold Increase: 2.08 fold
  miR-503 Fold Increase: 2.37 fold
[7]; [18]
  miR-204 Fold Increase: 2.00 fold
  miR-424 Fold Increase: 2.10 fold
  miR-503 Fold Increase: 2.44 fold
[7]; [19]
  miR-204 Fold Increase: 2.61 fold
  miR-424 Fold Increase: 1.71 fold
  miR-503 Fold Increase: 1.89 fold
[7]; [20]
  miR-204 Fold Increase: 4.30 fold
  miR-424 Fold Increase: 3.08 fold
  miR-503 Fold Increase: 3.80 fold
[7]; [21]
  miR-204 Fold Increase: 4.45 fold
  miR-424 Fold Increase: 3.36 fold
  miR-503 Fold Increase: 4.05 fold
[7]; [22]
  miR-204 expression change: increase in expression in a dose dependent manner
  miR-424 expression change: increase in expression in a dose dependent manner
  miR-503 expression change: increase in expression in a dose dependent manner
